Legend:
[1] = target: T1, mTOR (Homo sapiens, UniProt P42345); test: Biochemical assay for m-TOR by TR-FRET; conditions: 8 μM ATP, 400 nM GFP-4EBP1, 0.5 nM mTOR
T1 construct: purchased Invitrogen Corporation (Carlsbad/CA, USA) PV4753
Method in brief: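 mTOR (0.5 nM final) phosphorylated GFP-4EBP1 (400 nM final) with ATP (8 μM final) at rt in 50 mM HEPES pH 7.5, 10 mM MnCl2, 50 mM NaCl, 1 mM EGTA, 1 mM DTT. EDTA stop with Tb3+-anti-p4EBP1 [pThr46] antibody (0.5 nM); TR-FRET read 15 min later.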

[2] = system: PKB Ser473 phosphorylation in Rat1-myr-HA-p110 alpha cells; test: Reverse protein array assay, PKB Ser473 phosphorylation in Rat1-myr-p110 alpha cells; assay type: cell-based; conditions: 0.5 h, pAkt Ser473, 30 minutes compound incubation, read-out: p-PKB IC50
Method in brief: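 Cells: Rat1-myr-HA-p110 alpha/beta/delta, seeded ≥20 h. Lysis on ice 10 min; reverse-phase protein array, 4 lysate dilutions; fluorescence read, relative intensity.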

[3] = system: S6 Ribosomal Protein phosphorylation Ser235/236 in TSC1 null mouse embryo fibroblast (MEF) cells; test: Reverse protein array assay, S6 Ribosomal Protein phosphorylation Ser235/236 in TSC1 null MEF cells; assay type: cell-based; conditions: 1 h, pS6 ribosomal protein Ser235/236, 60 minutes incubation, read-out: p-S6 IC50
Method in brief: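 TSC1−/− MEFs, seeded and held ≥20 h at 37 °C/5% CO2, were exposed to 8-step serial compound dilutions (0.02% DMSO final; DMSO vehicle control) for 60 min at 37 °C. Cells were then lysed on ice for 10 min and lysates spotted onto reverse protein array chips.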

T1 sequence (P42345 1360-2549 limits assumed): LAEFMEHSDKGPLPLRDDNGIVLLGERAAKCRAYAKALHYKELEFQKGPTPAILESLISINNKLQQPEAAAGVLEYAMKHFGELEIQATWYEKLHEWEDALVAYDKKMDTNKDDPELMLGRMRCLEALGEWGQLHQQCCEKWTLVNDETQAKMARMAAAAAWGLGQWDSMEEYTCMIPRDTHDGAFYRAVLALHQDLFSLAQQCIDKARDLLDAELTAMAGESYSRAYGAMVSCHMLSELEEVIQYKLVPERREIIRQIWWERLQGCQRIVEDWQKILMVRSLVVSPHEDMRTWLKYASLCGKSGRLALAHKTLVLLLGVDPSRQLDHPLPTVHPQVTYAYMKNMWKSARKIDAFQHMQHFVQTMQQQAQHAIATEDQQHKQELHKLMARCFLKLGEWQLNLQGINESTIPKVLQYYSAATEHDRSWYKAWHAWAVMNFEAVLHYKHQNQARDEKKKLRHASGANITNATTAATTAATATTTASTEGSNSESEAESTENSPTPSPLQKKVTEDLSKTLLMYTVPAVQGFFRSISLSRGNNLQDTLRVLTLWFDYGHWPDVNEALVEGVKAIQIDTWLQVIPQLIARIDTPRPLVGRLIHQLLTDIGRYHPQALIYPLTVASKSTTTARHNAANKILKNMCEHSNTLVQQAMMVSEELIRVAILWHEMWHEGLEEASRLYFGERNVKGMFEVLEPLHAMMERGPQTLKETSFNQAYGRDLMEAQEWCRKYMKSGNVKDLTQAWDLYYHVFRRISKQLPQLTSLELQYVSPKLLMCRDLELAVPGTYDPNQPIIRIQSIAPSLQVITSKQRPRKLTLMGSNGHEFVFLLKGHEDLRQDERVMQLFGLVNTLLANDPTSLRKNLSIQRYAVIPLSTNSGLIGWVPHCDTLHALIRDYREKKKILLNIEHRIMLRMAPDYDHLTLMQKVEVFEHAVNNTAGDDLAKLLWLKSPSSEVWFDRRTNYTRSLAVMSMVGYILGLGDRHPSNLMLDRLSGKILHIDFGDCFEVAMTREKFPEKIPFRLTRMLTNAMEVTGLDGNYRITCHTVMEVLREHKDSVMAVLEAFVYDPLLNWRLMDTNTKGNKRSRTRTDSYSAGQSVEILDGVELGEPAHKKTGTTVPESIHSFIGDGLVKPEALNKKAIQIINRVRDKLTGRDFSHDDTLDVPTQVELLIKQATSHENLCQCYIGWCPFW

`Cc1nn(C)cc1-n1c(=O)n(C)c2cnc3ccc(-c4cncc(C(C)O)c4)cc3c21` (racemic) [Example 217, (rac)-1-(1,3-Dimethyl-1H-pyrazol-4-yl)-8-[5-(1-hydroxy-ethyl)-pyridin-3-yl]-3-methyl-1,3-dihydro-imidazo[4,5-c]quinolin-2-one] gave an IC50 [1] of 12 nM, an IC50 [2] of 108 nM and an IC50 [3] of 10 nM.
For `COc1ccc(-c2ccc3ncc4c(c3c2)n(-c2c(C)nn(C)c2C)c(=O)n4C)cc1OC` [Example 1.9, 8-(3,4-Dimethoxy-phenyl)-3-methyl-1-(1,3,5-trimethyl-1H-pyrazol-4-yl)-1,3-dihydro-imidazo[4,5-c]quinolin-2-one], the IC50 [1] was 308 nM, the IC50 [2] was 26 nM and the IC50 [3] was 44 nM.
In the case of `COc1ccc(-c2ccc3ncc4c(c3c2)n(-c2ccnn2C)c(=O)n4C)cn1` [Example 2.2, 8-(6-Methoxy-pyridin-3-yl)-3-methyl-1-(2-methyl-2H-pyrazol-3-yl)-1,3-dihydro-imidazo[4,5-c]quinolin-2-one], the IC50 [1] is reported as 347 nM and the IC50 [2] is reported as 159 nM.
`COc1ccc(-c2ccc3ncc4c(c3c2)n(-c2cnn(C)c2C)c(=O)n4C)cn1` [Example 2.9, 1-(1,5-Dimethyl-1H-pyrazol-4-yl)-8-(6-methoxy-pyridin-3-yl)-3-methyl-1,3-dihydro-imidazo[4,5-c]quinolin-2-one] gave an IC50 [1] of 151 nM, an IC50 [2] of 44 nM and an IC50 [3] of 27 nM.
With `CCOc1ccc(-c2ccc3ncc4c(c3c2)n(-c2cn(C)nc2Cl)c(=O)n4C)cn1` [Example 3.8, 1-(3-Chloro-1-methyl-1H-pyrazol-4-yl)-8-(6-ethoxy-pyridin-3-yl)-3-methyl-1,3-dihydro-imidazo[4,5-c]quinolin-2-one] the IC50 [1] was 9 nM, the IC50 [2] was 15 nM and the IC50 [3] was 11 nM.
`Cc1c(-n2c(=O)n(C)c3cnc4ccc(-c5ccc(N(C)C)nc5)cc4c32)cnn1C` [Example 4.4, 8-(6-Dimethylamino-pyridin-3-yl)-1-(1,5-dimethyl-1H-pyrazol-4-yl)-3-methyl-1,3-dihydro-imidazo[4,5-c]quinolin-2-one] gave an IC50 [1] of 100 nM, an IC50 [2] of 53 nM and an IC50 [3] of 10 nM.
With `Cc1nn(C(C)C)cc1-n1c(=O)n(C)c2cnc3ccc(-c4cnc(N(C)C)nc4)cc3c21` [Example 6.1, 8-(2-Dimethylamino-pyrimidin-5-yl)-1-(1-isopropyl-3-methyl-1H-pyrazol-4-yl)-3-methyl-1,3-dihydro-imidazo[4,5-c]quinolin-2-one] the IC50 [1] was 30 nM, the IC50 [2] was 61 nM and the IC50 [3] was 33 nM.
In the case of `Cc1nn(C)cc1-n1c(=O)n(C)c2cnc3ccc(-c4cccnc4)cc3c21` [Example 10.2, 1-(1,3-Dimethyl-1H-pyrazol-4-yl)-3-methyl-8-pyridin-3-yl-1,3-dihydro-imidazo[4,5-c]quinolin-2-one], the IC50 [1] is reported as 48 nM, the IC50 [2] is reported as 50 nM and the IC50 [3] is reported as 24 nM.
For `CCn1cc(-n2c(=O)n(C)c3cnc4ccc(-c5ccc(CO)nc5)cc4c32)c(C)n1` [Example 16.1, 1-(1-ethyl-3-methyl-1H-pyrazol-4-yl)-8-(6-hydroxymethyl-pyridin-3-yl)-3-methyl-1,3-dihydro-imidazo[4,5-c]quinolin-2-one], the IC50 [1] was 34 nM, the IC50 [2] was 74 nM and the IC50 [3] was 33 nM.
For `Cc1nn(C)cc1-n1c(=O)n(C)c2cnc3ccc(-c4cncc(S(C)(=O)=O)c4)cc3c21` [Example 22, 1-(1,3-Dimethyl-1H-pyrazol-4-yl)-8-(5-methanesulfonyl-pyridin-3-yl)-3-methyl-1,3-dihydro-imidazo[4,5-c]quinolin-2-one], the IC50 [1] was 121 nM, the IC50 [2] was 168 nM and the IC50 [3] was 27 nM.
Compound `Cc1nn(CC(=O)N(C)C)c(C)c1-n1c(=O)n(C)c2cnc3ccc(-c4cnc(N)c(C(F)(F)F)c4)cc3c21` [Example 25.2, 2-{4-[8-(6-Amino-5-trifluoromethyl-pyridin-3-yl)-3-methyl-2-oxo-2,3-dihydro-imidazo[4,5-c]quinolin-1-yl]-3,5-dimethyl-pyrazol-1-yl}-N,N-dimethyl-acetamide] has an IC50 [1] of 152 nM, an IC50 [2] of 90 nM and an IC50 [3] of 6 nM.
`Cc1nn(C)c(C)c1-n1c(=O)n(C)c2cnc3ccc(-c4cnc(N)c(C(F)(F)F)c4)cc3c21` [Example 25.3, 8-(6-Amino-5-trifluoromethyl-pyridin-3-yl)-3-methyl-1-(1,3,5-trimethyl-1H-pyrazol-4-yl)-1,3-dihydro-imidazo[4,5-c]quinolin-2-one] was tested, and the IC50 [1] was 116 nM, the IC50 [2] was 25 nM and the IC50 [3] was 2 nM.
For `Cc1nn(C(C)C)cc1-n1c(=O)n(C)c2cnc3ccc(-c4cnc(N)c(C(F)(F)F)c4)cc3c21` [Example 25.4, 8-(6-Amino-5-trifluoromethyl-pyridin-3-yl)-1-(1-isopropyl-3-methyl-1H-pyrazol-4-yl)-3-methyl-1,3-dihydro-imidazo[4,5-c]quinolin-2-one], the IC50 [1] was 6 nM, the IC50 [2] was < 5 nM and the IC50 [3] was < 0.5 nM.
For `Cc1noc(C)c1-n1c(=O)n(C)c2cnc3ccc(-c4cnc(N)c(C(F)(F)F)c4)cc3c21` [Example 25.5, 8-(6-Amino-5-trifluoromethyl-pyridin-3-yl)-1-(3,5-dimethyl-isoxazol-4-yl)-3-methyl-1,3-dihydro-imidazo[4,5-c]quinolin-2-one], the IC50 [1] was 432 nM, the IC50 [2] was 97 nM and the IC50 [3] was 8 nM.
`Cc1nn(C)cc1-n1c(=O)n(C)c2cnc3ccc(-c4cncnc4)cc3c21` [Example 26, 1-(1,3-Dimethyl-1H-pyrazol-4-yl)-3-methyl-8-pyrimidin-5-yl-1,3-dihydro-imidazo[4,5-c]quinolin-2-one] gave an IC50 [1] of 112 nM, an IC50 [2] of 159 nM and an IC50 [3] of 5 nM.
`Cc1nn(C)cc1-n1c(=O)n(C)c2cnc3ccc(-c4cc(O)cc(C(F)(F)F)c4)cc3c21` [Example 34, 1-(1,3-Dimethyl-1H-pyrazol-4-yl)-8-(3-hydroxy-5-trifluoromethyl-phenyl)-3-methyl-1,3-dihydro-imidazo[4,5-c]quinolin-2-one] was tested, and the IC50 [1] was 133 nM, the IC50 [2] was 138 nM and the IC50 [3] was 3.56 nM.
For `Cc1nn(C)cc1-n1c(=O)n(C)c2cnc3ccc(-c4cnc5[nH]ccc5c4)cc3c21` [Example 36, 1-(1,3-dimethyl-1H-pyrazol-4-yl)-3-methyl-8-(1H-pyrrolo[2,3-b]pyridin-5-yl)-1,3-dihydro-imidazo[4,5-c]quinolin-2-one], the IC50 [1] was < 3 nM, the IC50 [2] was 5 nM and the IC50 [3] was < 0.5 nM.
Compound `Cc1nn(C)cc1-n1c(=O)n(C)c2cnc3ccc(-c4ccc(OCC5CC5)nc4)cc3c21` [Example 42, 8-(6-Cyclopropylmethoxy-pyridin-3-yl)-1-(1,3-dimethyl-1H-pyrazol-4-yl)-3-methyl-1,3-dihydro-imidazo[4,5-c]quinolin-2-one] has an IC50 [1] of 65 nM, an IC50 [2] of 36 nM and an IC50 [3] of 3 nM.
`CNC(=O)c1ccc(-c2ccc3ncc4c(c3c2)n(-c2cn(C)nc2Cl)c(=O)n4C)cc1` [Example 43.2, 4-[1-(3-Chloro-1-methyl-1H-pyrazol-4-yl)-3-methyl-2-oxo-2,3-dihydro-1H-imidazol[4,5-c]quinolin-8-yl]-N-methyl-benzamide] was tested, and the IC50 [1] was 4 nM, the IC50 [2] was 6 nM and the IC50 [3] was < 0.5 nM.
Compound `Cc1nn(C)cc1-n1c(=O)n(C)c2cnc3ccc(-c4ccc5c(c4)CCN5C)cc3c21` [Example 50, 1-(1,3-Dimethyl-1H-pyrazol-4-yl)-3-methyl-8-(1-methyl-2,3-dihydro-1H-indol-5-yl)-1,3-dihydro-imidazo[4,5-c]quinolin-2-one] has an IC50 [1] of 157 nM, an IC50 [2] of 72 nM and an IC50 [3] of 91 nM.
Compound `Cc1nn(CC(=O)N(C)C)c(C)c1-n1c(=O)n(C)c2cnc3ccc(-c4ccc(-n5cccn5)cc4)cc3c21` [Example 51.4, 2-{3,5-Dimethyl-4-[3-methyl-2-oxo-8-(4-pyrazol-1-yl-phenyl)-2,3-dihydro-imidazo[4,5-c]quinolin-1-yl]pyrazol-1-yl}-N,N-dimethyl-acetamide] has an IC50 [1] of 99 nM, an IC50 [2] of 14 nM and an IC50 [3] of 11 nM.
`Cc1ncc(-c2ccc3ncc4c(c3c2)n(-c2cn(C)nc2C)c(=O)n4C)cc1N(C)S(C)(=O)=O` [Example 75, N-{5-[1-(1,3-Dimethyl-1H-pyrazol-4-yl)-3-methyl-2-oxo-2,3-dihydro-1H-imidazo[4,5-c]quinolin-8-yl]-2-methyl-pyridin-3-yl}-N-methyl-methanesulfonamide] gave an IC50 [1] of 260 nM and an IC50 [2] of 206 nM.
In the case of `CCNc1cc(-c2ccc3ncc4c(c3c2)n(-c2cn(C)nc2C)c(=O)n4C)cnc1C` [Example 87.1, 1-(1,3-Dimethyl-1H-pyrazol-4-yl)-8-(5-ethylamino-6-methyl-pyridin-3-yl)-3-methyl-1,3-dihydro-imidazo[4,5-c]quinolin-2-one], the IC50 [1] is reported as 3 nM and the IC50 [2] is reported as < 5 nM.
For `CCn1cc(-n2c(=O)n(C)c3cnc4ccc(-c5cncc(NC)c5)cc4c32)c(C)n1` [Example 180.1, 1-(1-Ethyl-3-methyl-1H-pyrazol-4-yl)-3-methyl-8-(5-methylamino-pyridin-3-yl)-1,3-dihydro-imidazo[4,5-c]quinolin-2-one], the IC50 [1] was 5 nM and the IC50 [2] was < 5 nM.
In the case of `COCCNC(=O)c1cc(-c2ccc3ncc4c(c3c2)n(-c2cn(C)nc2C)c(=O)n4C)cnc1N` [Example 226, 2-Amino-5-[1-(1,3-dimethyl-1H-pyrazol-4-yl)-3-methyl-2-oxo-2,3-dihydro-1H-imidazo[4,5-c]quinolin-8-yl]-N-(2-methoxy-ethyl)-nicotinamide], the IC50 [1] is reported as 169 nM and the IC50 [3] is reported as 7 nM.

— patent US20140005163A1 (NOVARTIS AG, priority 2010, published 2014)
